{
  "source": "patent US10668043B2",
  "about": "“Potentiated antimicrobial agents” (priority 2014, dated 2020)",
  "key": {"[1]": {"system": "microorganisms grown in planktonic and biofilm cultures", "conditions": "Hendry et al, J Antimicrob Chemother 2009; cited from earlier work"}, "Staphylococcus [2]": {"system": "Staphylococcus", "test": "Double dilution test", "type": "cell-based", "conditions": "strain 8148", "text": "(§1) The double dilution test is a MIC measurement test made on successive dilutions of the 2 products of the composition. […] The summary table expresses for each strain and for each dilution of the booster the measured antibiotic MIC.\n(§2) The code enabling the results to be interpreted is the following one: no sign “^+” if the MIC is equivalent with and without booster, a sign “^+” if the value is lower with booster."}, "E. coli": {"system": "E. coli", "test": "Double dilution test", "type": "cell-based", "text": "as §1, §2"}, "Pseudomonas aeruginosa": {"system": "Pseudomonas aeruginosa", "test": "MIC measurement in agar solid medium (CLSI)", "type": "cell-based", "text": "(§3) Inhibitory minimum concentration measurement tests are made in a solid agar medium according to international standards in force (CLSI M7-A9 Jan 12 standards): dispersion of the compounds to be tested in a Mueller Hinton gelose. An adaptation relating to the hydrophobicity of compounds and compositions is however necessary to disperse them in the medium: dilution of the compounds in a solvent. The compounds and compositions incorporated in the agar medium can be diluted beforehand in one or more solvents (Tween® 80 diluted with water, tween® 80 diluted with propylene, DMSO diluted with water). The strains are deposited onto the agar surface with a steers apparatus. In the examples, different dissolution methods for products are tested in parallel to circumvent the problems of water/solvent distribution coefficient of the molecules (antimicrobial and potentiator) whereas the bacteria grow only in the aqueous phase. The technical requirement will not intervene in in vivo tests. The same dilution methods can be implemented in a liquid medium (microplates and tubes). The same methodology is implemented with fungi.\nMIC measurement: the minimum inhibitory concentration measurement tests are made in an agar solid medium according to international standards in force (CLSI standards), according to the previously defined protocol. The compounds and compositions incorporated in the agar medium can be diluted beforehand in one or more solvents (Tween® 80 diluted with water—3.4 ml Tween for 9.6 ml water—, tween® 80 diluted with propylene 10-3.4 ml Tween for 9.6 ml propylene—, or DMSO diluted with water).\nThe booster contribution as compared with the MIC of the antibiotic alone is expressed in a (MIC ATB)/(MIC ATB+booster) ratio. Thereby, gains are defined:\nMIC 50 gain=(MIC50 of the antibiotic alone)/(MIC50 (antibiotic+booster))\nMIC 90 gain=(MIC90 of the antibiotic alone)/(MIC90 (antibiotic+booster))\nThe tested strains are isolated from various human samples (blood, urine, pulmonary aspirates, etc.). The strains investigated in the following examples are chosen from the strains of the following table: […]"}, "strain 08150": {"system": "strain 08150", "test": "Post antibiotic effect", "type": "cell-based"}, "MRSA": {"system": "MRSA", "test": "Sepsis model, in vivo test 2", "design": "species or system CD1 mice", "conditions": "CIN 32 mg/kg without antibiotic; subcutaneous; count at 24 h", "protocol": "200 μL of a bacterial solution (MRSA) adjusted to 5.108 UFC/ml is injected by the intravenous route (retro-orbital route) to CD1 mice. The treatment is initiated 1 h after the bacteria injection by the subcutaneous route.\nAt 24 h, the mice are euthanized and a bacterial count is made in the kidney.\nControls: untreated group, group receiving 32 mg/kg cineol without antibiotic (CIN), group receiving 8 mg/kg antibiotic without cineol (AMC8). • (*) p<0.05 vs control, AMC8 and CIN • (£) p<0.05 vs control and CIN • ($) p<0.05 vs control, AMC8, CIN, AMC+CIN 128, AMC+CIN 256"}, "Escherichia coli": {"system": "Escherichia coli", "test": "MIC measurement in agar solid medium (CLSI)", "type": "cell-based", "text": "as §3, with “fungi. MIC measurement: the minimum inhibitory concentration measurement tests are made in an agar solid medium according to international standards in force (CLSI standards), according to the previously defined protocol. […] The booster contribution as compared with the MIC of the antibiotic alone is expressed in a (MIC ATB)/(MIC ATB+booster) ratio. Thereby, gains are defined: […] The tested strains are isolated from various human samples (blood, urine, pulmonary aspirates, etc.). The strains investigated in the following examples are chosen from the strains of the following table: [table] […] The MICs are measured on different strains. Then, the MIC gain is calculated on the strains belonging to the same genus. The MIC gain expresses the following ratio: […]” for “fungi.”"}, "Staphylococcus [3]": {"system": "Staphylococcus", "test": "MIC measurement in agar solid medium (CLSI)", "type": "cell-based", "text": "as §3, with “fungi. MIC measurement: the minimum inhibitory concentration measurement tests are made in an agar solid medium according to international standards in force (CLSI standards), according to the previously defined protocol. […] The booster contribution as compared with the MIC of the antibiotic alone is expressed in a (MIC ATB)/(MIC ATB+booster) ratio. Thereby, gains are defined: […] The tested strains are isolated from various human samples (blood, urine, pulmonary aspirates, etc.). The strains investigated in the following examples are chosen from the strains of the following table: [table] […] The MICs are measured on different strains. Then, the MIC gain is calculated on the strains belonging to the same genus. The MIC gain expresses the following ratio: […]” for “fungi.”"}, "strains": {"system": "strains", "test": "MIC of cineol alone, strains not named", "type": "cell-based", "conditions": "cineol used alone; strains of the etest example"}, "MRSA 10168": {"system": "MRSA 10168", "conditions": "mouse, in vivo", "method": "To Balb/c mice, is injected (Sc.) the antimicrobial product or the antimicrobial+booster mixture.\nAt different post-injection times, the mice are euthanised, and blood sampled, heparined and centrifuged to extract plasma thereof\nAntibacterial effects are measured after 24 h incubation. The successive dilutions enable the antimicrobial effect to be determined and compared with the MIC. The efficient concentration/MIC ratio is thus determined."}},
  "data": [
    {"molecule": "CC12CCC(CC1)C(C)(C)O2", "note": "[Cineol, cineol]", "values": [
      {"measurement": "MIC of cineole", "setting": "[1]", "value": "8000 to 64000", "unit": "µg/mL"},
      {"measurement": "MIC of cineol alone", "setting": "Staphylococcus [2]", "value": "> 2.5", "unit": "µg/mL"},
      {"measurement": "MIC of cineol alone", "setting": "E. coli; strain 8137", "value": "> 2.5", "unit": "µg/mL"},
      {"measurement": "MIC of cineol alone", "setting": "E. coli; strain 8151", "value": "> 2.5", "unit": "µg/mL"},
      {"measurement": "MIC of cineol alone", "setting": "E. coli; strain 8155", "value": "> 2.5", "unit": "µg/mL"},
      {"measurement": "MIC of cineol alone", "setting": "E. coli; strain 8156", "value": "> 2.5", "unit": "µg/mL"},
      {"measurement": "MIC of cineol alone", "setting": "E. coli; strain ATCC 25922", "value": "> 2.5", "unit": "µg/mL"},
      {"measurement": "MIC 50 of cineol alone", "setting": "Pseudomonas aeruginosa; DMSO", "value": 1, "unit": "%"},
      {"measurement": "MIC 90 of cineol alone", "setting": "Pseudomonas aeruginosa; DMSO", "value": 1, "unit": "%"},
      {"measurement": "MIC 50 of cineol alone", "setting": "Pseudomonas aeruginosa; Tween/prop glyc", "value": ">1", "unit": "%"},
      {"measurement": "MIC 90 of cineol alone", "setting": "Pseudomonas aeruginosa; Tween/prop glyc", "value": ">1", "unit": "%"},
      {"measurement": "MIC 50 of cineol alone", "setting": "Pseudomonas aeruginosa; Tween/water", "value": ">1", "unit": "%"},
      {"measurement": "MIC 90 of cineol alone", "setting": "Pseudomonas aeruginosa; Tween/water", "value": ">1", "unit": "%"},
      {"measurement": "MIC 50 of cineol alone", "setting": "Pseudomonas aeruginosa; water/water", "value": ">1", "unit": "%"},
      {"measurement": "MIC 90 of cineol alone", "setting": "Pseudomonas aeruginosa; water/water", "value": ">1", "unit": "%"},
      {"measurement": "number of bacteria", "setting": "strain 08150; time 0 h after 16 h contact, Cineol 4 mg/L (AC, where present, at its MIC)", "value": "2.17E+07"},
      {"measurement": "number of bacteria", "setting": "strain 08150; time 0 h after 16 h contact, Cineol 16 mg/L (AC, where present, at its MIC)", "value": "2.20E+07"},
      {"measurement": "number of bacteria", "setting": "strain 08150; time 1 h after 16 h contact, Cineol 4 mg/L (AC, where present, at its MIC)", "value": "4.92E+07"},
      {"measurement": "number of bacteria", "setting": "strain 08150; time 1 h after 16 h contact, Cineol 16 mg/L (AC, where present, at its MIC)", "value": "3.88E+07"},
      {"measurement": "number of bacteria", "setting": "strain 08150; time 2 h after 16 h contact, Cineol 4 mg/L (AC, where present, at its MIC)", "value": "5.50E+07"},
      {"measurement": "number of bacteria", "setting": "strain 08150; time 2 h after 16 h contact, Cineol 16 mg/L (AC, where present, at its MIC)", "value": "6.40E+07"},
      {"measurement": "number of bacteria", "setting": "strain 08150; time 3 h after 16 h contact, Cineol 4 mg/L (AC, where present, at its MIC)", "value": "3.90E+08"},
      {"measurement": "number of bacteria", "setting": "strain 08150; time 3 h after 16 h contact, Cineol 16 mg/L (AC, where present, at its MIC)", "value": "2.70E+08"},
      {"measurement": "number of bacteria", "setting": "strain 08150; time 4 h after 16 h contact, Cineol 4 mg/L (AC, where present, at its MIC)", "value": "3.50E+08"},
      {"measurement": "number of bacteria", "setting": "strain 08150; time 4 h after 16 h contact, Cineol 16 mg/L (AC, where present, at its MIC)", "value": "4.20E+08"},
      {"measurement": "number of bacteria", "setting": "strain 08150; time 5 h after 16 h contact, Cineol 4 mg/L (AC, where present, at its MIC)", "value": "5.90E+08"},
      {"measurement": "number of bacteria", "setting": "strain 08150; time 5 h after 16 h contact, Cineol 16 mg/L (AC, where present, at its MIC)", "value": "5.50E+08"},
      {"measurement": "number of bacteria", "setting": "strain 08150; time 6 h after 16 h contact, Cineol 4 mg/L (AC, where present, at its MIC)", "value": "6.00E+08"},
      {"measurement": "number of bacteria", "setting": "strain 08150; time 6 h after 16 h contact, Cineol 16 mg/L (AC, where present, at its MIC)", "value": "5.90E+08"},
      {"measurement": "Mean ± SD log10 UFC/g kidney", "setting": "MRSA", "value": "6.35 ± 0.29", "unit": "log10 UFC/g kidney"},
      {"measurement": "MIC 50 of cineol alone", "setting": "Escherichia coli; DMSO", "value": ">1", "unit": "%"},
      {"measurement": "MIC 90 of cineol alone", "setting": "Escherichia coli; DMSO", "value": ">1", "unit": "%"},
      {"measurement": "MIC 50 of cineol alone", "setting": "Escherichia coli; Tween/prop glyc", "value": ">1", "unit": "%"},
      {"measurement": "MIC 90 of cineol alone", "setting": "Escherichia coli; Tween/prop glyc", "value": ">1", "unit": "%"},
      {"measurement": "MIC 50 of cineol alone", "setting": "Escherichia coli; Tween/water", "value": ">1", "unit": "%"},
      {"measurement": "MIC 90 of cineol alone", "setting": "Escherichia coli; Tween/water", "value": ">1", "unit": "%"},
      {"measurement": "MIC 50 of cineol alone", "setting": "Escherichia coli; water/water", "value": ">1", "unit": "%"},
      {"measurement": "MIC 90 of cineol alone", "setting": "Escherichia coli; water/water", "value": ">1", "unit": "%"},
      {"measurement": "MIC 50 of cineol alone", "setting": "Staphylococcus [3]; DMSO", "value": ">1", "unit": "%"},
      {"measurement": "MIC 90 of cineol alone", "setting": "Staphylococcus [3]; DMSO", "value": ">1", "unit": "%"},
      {"measurement": "MIC 50 of cineol alone", "setting": "Staphylococcus [3]; Tween/prop glyc", "value": ">1", "unit": "%"},
      {"measurement": "MIC 90 of cineol alone", "setting": "Staphylococcus [3]; Tween/prop glyc", "value": ">1", "unit": "%"},
      {"measurement": "MIC 50 of cineol alone", "setting": "Staphylococcus [3]; Tween/water", "value": ">1", "unit": "%"},
      {"measurement": "MIC 90 of cineol alone", "setting": "Staphylococcus [3]; Tween/water", "value": ">1", "unit": "%"},
      {"measurement": "MIC 50 of cineol alone", "setting": "Staphylococcus [3]; water/water", "value": ">1", "unit": "%"},
      {"measurement": "MIC 90 of cineol alone", "setting": "Staphylococcus [3]; water/water", "value": ">1", "unit": "%"},
      {"measurement": "MIC50", "setting": "strains", "value": "> 10000", "unit": "µg/mL"}
    ]},
    {"molecule": "amoxicillin/clavulanic acid [Augmentin®]", "values": [
      {"measurement": "Time spent beyond the MIC", "setting": "MRSA 10168", "value": "<4", "unit": "h"}
    ]}
  ]
}
